Assays:
H. influenzae ATCC 9006 = experiment: microdilution assay MIC, H. influenzae ATCC 9006; type: cell-based, Haemophilus influenzae; conditions: average where multiple assays
Method: (§1) In Table B, in some instances multiple assays were performed for a compound/strain combination, in which case the reported MIC is the average. S. pneumoniae ATCC 6301, ATCC 700671, and ATCC 49619 and S. aureus ATCC 6538p and ATCC 29213 are erythromycin sensitive strains.

[1] = system: S. epidermidis ATCC 12228; experiment: microdilution assay MIC, S. epidermidis ATCC 12228; type: cell-based, Staphylococcus epidermidis; conditions: average where multiple assays
Method: as §1

[2] = system: S. pneumoniae ATCC 700671; experiment: microdilution assay MIC, S. pneumoniae ATCC 700671; type: cell-based, Streptococcus pneumoniae; conditions: S. pneumoniae ATCC 700671, erythromycin sensitive strain; average where multiple assays
Method: as §1

[3] = system: S. pneumoniae ATCC 700676; experiment: microdilution assay MIC, S. pneumoniae ATCC 700676; type: cell-based, Streptococcus pneumoniae; conditions: S. pneumoniae ATCC 700676, erythromycin A resistant strain; average where multiple assays
Method: as §1

S. pneumoniae ATCC 49619 = experiment: microdilution assay MIC, S. pneumoniae ATCC 49619; type: cell-based, Streptococcus pneumoniae; conditions: S. pneumoniae ATCC 49619, erythromycin sensitive strain; average where multiple assays
Method: as §1

S. pneumoniae ATCC 6301 = experiment: microdilution assay MIC, S. pneumoniae ATCC 6301; type: cell-based, Streptococcus pneumoniae; conditions: S. pneumoniae ATCC 6301, erythromycin sensitive strain; average where multiple assays
Method: as §1

H. influenzae ATCC 49766 = experiment: microdilution assay MIC, H. influenzae ATCC 49766; type: cell-based, Haemophilus influenzae; conditions: average where multiple assays
Method: as §1

[4] = system: S. pneumoniae ATCC 700677; experiment: microdilution assay MIC, S. pneumoniae ATCC 700677; type: cell-based, Streptococcus pneumoniae; conditions: S. pneumoniae ATCC 700677, erythromycin A resistant strain; average where multiple assays
Method: as §1

S. aureus ATCC 14154 = experiment: microdilution assay MIC, S. aureus ATCC 14154; type: cell-based, Staphylococcus aureus; conditions: S. aureus ATCC 14154, erythromycin A resistant strain; average where multiple assays
Method: (§2) In Table B, in some instances multiple assays were performed for a compound/strain combination, in which case the reported MIC is the average.

S. aureus ATCC 6538p = experiment: microdilution assay MIC, S. aureus ATCC 6538p; type: cell-based, Staphylococcus aureus; conditions: erythromycin sensitive strain, average where multiple assays
Method: as §1

S. aureus ATCC 29213 = experiment: microdilution assay MIC, S. aureus ATCC 29213; type: cell-based, Staphylococcus aureus; conditions: S. aureus ATCC 29213, erythromycin sensitive strain; average where multiple assays
Method: as §1

[5] = system: S. pneumoniae ATCC 700906; experiment: microdilution assay MIC, S. pneumoniae ATCC 700906; type: cell-based, Streptococcus pneumoniae; conditions: S. pneumoniae ATCC 700906, erythromycin A resistant strain; average where multiple assays
Method: as §2

E. faecalis ATCC 51575 = experiment: microdilution assay MIC, E. faecalis ATCC 51575; type: cell-based, Enterococcus faecalis; conditions: average where multiple assays
Method: as §2

[6] = system: S. pneumoniae ATCC 700905; experiment: microdilution assay MIC, S. pneumoniae ATCC 700905; type: cell-based, Streptococcus pneumoniae; conditions: S. pneumoniae ATCC 700905, erythromycin A resistant strain; average where multiple assays
Method: as §1

| SMILES | MIC (H. influenzae ATCC 9006) [µg/mL] | MIC [1] [µg/mL] | MIC [2] [µg/mL] | MIC [3] [µg/mL] | MIC (S. pneumoniae ATCC 49619) [µg/mL] | MIC (S. pneumoniae ATCC 6301) [µg/mL] | MIC (H. influenzae ATCC 49766) [µg/mL] | MIC [4] [µg/mL] | MIC (S. aureus ATCC 14154) [µg/mL] | MIC (S. aureus ATCC 6538p) [µg/mL] | MIC (S. aureus ATCC 29213) [µg/mL] | MIC [5] [µg/mL] | MIC (E. faecalis ATCC 51575) [µg/mL] | MIC [6] [µg/mL] |
| --- | --- | --- | --- | --- | --- | --- | --- | --- | --- | --- | --- | --- | --- | --- |
| COC1(C)CC(C)C(=O)C(C)C2NC(=O)OC2(C)C(CCNS(=O)(=O)c2ccc3ccccc3c2)OC(=O)C(C)C(=O)C(C)C1OC1OC(C)CC(N(C)C)C1O (stereo not drawn) [Compound 107] | 12.5 | 0.025 | 0.01 | 0.01 | 0.01 | 0.01 | 12.5 | 0.01 | 1.56 | 0.01 | 0.025 | 3.12 | 0.025 | 0.01 |
| COC1(C)CC(C)C(=O)C(C)C2NC(=O)OC2(C)C(CCNC(=O)Oc2ccc(-c3ccccc3)cc2)OC(=O)C(C)C(=O)C(C)C1OC1OC(C)CC(N(C)C)C1O (stereo not drawn) [Compound 112] | 3.12 | – | 0.025 | 0.025 | 0.049 | 0.025 | 6.25 | 0.78 | – | – | – | 0.049 | – | 0.025 |
| COC1(C)CC(C)C(=O)C(C)C2NC(=O)OC2(C)C(CCNC(=O)Oc2ccc(F)cc2)OC(=O)C(C)C(=O)C(C)C1OC1OC(C)CC(N(C)C)C1O (stereo not drawn) [Compound 116] | 3.12 | – | 0.025 | 0.025 | 0.049 | 0.025 | 6.25 | 0.39 | – | – | – | 0.098 | – | 0.025 |
| COC1(C)CC(C)C(=O)C(C)C2NC(=O)OC2(C)C(CCNC(=O)Oc2cccc(-c3ccncc3)c2)OC(=O)C(C)C(=O)C(C)C1OC1OC(C)CC(N(C)C)C1O (stereo not drawn) [Compound 110] | 1.56 | – | 0.025 | 0.025 | 0.025 | 0.025 | 3.12 | 0.025 | – | – | – | 0.049 | – | 0.025 |
| COC1(C)CC(C)C(=O)C(C)C2NC(=O)OC2(C)C(CCNC(=O)OCC(C)C)OC(=O)C(C)C(=O)C(C)C1OC1OC(C)CC(N(C)C)C1O (stereo not drawn) [Compound 117] | 6.25 | – | 0.098 | 0.025 | 0.025 | 0.025 | 6.25 | >12.5 | – | – | – | >12.5 | – | 0.025 |
| COC1(C)CC(C)C(=O)C(C)C2NC(=O)OC2(C)C(CCN(C)CCc2cccc(-c3ccco3)c2)OC(=O)C(C)C(=O)C(C)C1OC1OC(C)CC(N(C)C)C1O (stereo not drawn) [Compound 103] | >12.5 | 0.049 | 0.049 | 0.049 | 0.049 | 0.049 | >12.5 | 0.098 | 0.39 | 0.098 | 0.39 | >12.5 | 12.5 | 0.049 |
| COC1(C)CC(C)C(=O)C(C)C2NC(=O)OC2(C)C(CCN2CCCCC2)OC(=O)C(C)C(=O)C(C)C1OC1OC(C)CC(N(C)C)C1O (stereo not drawn) [Compound 102] | 3.12 | – | 3.12 | 0.78 | 0.2 | 0.098 | 6.25 | >12.5 | – | – | – | >12.5 | – | 0.098 |
| COC1(C)CC(C)C(=O)C(C)C2NC(=O)OC2(C)C(CCNC(=O)Oc2cccc3ccccc23)OC(=O)C(C)C(=O)C(C)C1OC1OC(C)CC(N(C)C)C1O (stereo not drawn) [Compound 114] | – | – | 0.025 | 0.098 | 0.049 | 0.025 | 3.12 | 0.049 | 0.025 | 0.025 | – | 6.25 | – | 0.025 |
| COC1(C)CC(C)C(=O)C(C)C2NC(=O)OC2(C)C(CCNC(=O)Oc2cccc(-c3cccnc3)c2)OC(=O)C(C)C(=O)C(C)C1OC1OC(C)CC(N(C)C)C1O (stereo not drawn) [Compound 109] | 1.56 | – | 0.025 | 0.025 | 0.025 | 0.025 | 1.56 | 0.025 | – | – | – | 0.025 | – | 0.025 |
| CCN(C)CCC1OC(=O)C(C)C(=O)C(C)C(OC2OC(C)CC(N(C)C)C2O)C(C)(OC)CC(C)C(=O)C(C)C2NC(=O)OC12C (stereo not drawn) [Compound 101] | – | 6.25 | 0.39 | 6.25 | 0.78 | 0.2 | – | >12.5 | 6.25 | 6.25 | 6.25 | >12.5 | 6.25 | 3.12 |
| CC[C@H]1OC(=O)[C@H](C)[C@@H](O[C@H]2C[C@@](C)(OC)[C@@H](O)[C@H](C)O2)[C@H](C)[C@@H](O[C@@H]2O[C@H](C)C[C@H](N(C)C)[C@H]2O)[C@](C)(O)C[C@@H](C)C(=O)[C@H](C)[C@@H](O)[C@]1(C)O [Ery A, erythromycin A, reference compound] | 1.56 | 0.20 | 0.049 | 6.25 | 0.049 | 0.025 | 6.25 | 6.25 | – | 0.098 | 0.20 | – | – | 3.12 |
| COC(=O)NCCC1OC(=O)C(C)C(=O)C(C)C(OC2OC(C)CC(N(C)C)C2O)C(C)(OC)CC(C)C(=O)C(C)C2NC(=O)OC12C (stereo not drawn) [Compound 118] | 6.25 | – | 0.049 | 0.098 | 0.049 | 0.025 | 3.12 | 0.39 | 0.39 | 0.49 | – | >12.5 | – | 0.98 |
| COC1(C)CC(C)C(=O)C(C)C2NC(=O)OC2(C)C(CCNC(=O)Oc2cccc(-c3ccccc3)c2)OC(=O)C(C)C(=O)C(C)C1OC1OC(C)CC(N(C)C)C1O (stereo not drawn) [Compound 111] | 1.56 | – | 0.025 | 0.025 | 0.049 | 0.025 | 1.56 | 0.025 | – | – | – | 0.025 | – | 0.025 |
| COC1(C)CC(C)C(=O)C(C)C2NC(=O)OC2(C)C(CCNC(=O)Nc2cccc3ccccc23)OC(=O)C(C)C(=O)C(C)C1OC1OC(C)CC(N(C)C)C1O (stereo not drawn) [Compound 119] | 6.25 | – | 0.049 | 0.049 | 0.025 | 0.025 | 3.12 | 0.78 | – | – | – | 0.098 | – | 0.025 |
| COC1(C)CC(C)C(=O)C(C)C2NC(=O)OC2(C)C(CCNC(=O)OCC2c3ccccc3-c3ccccc32)OC(=O)C(C)C(=O)C(C)C1OC1OC(C)CC(N(C)C)C1O (stereo not drawn) [Compound 115] | 0.78 | – | 0.025 | 0.025 | 0.025 | 0.025 | 1.56 | 0.025 | – | – | – | 0.025 | – | 0.025 |
| COC1(C)CC(C)C(=O)C(C)C2NC(=O)OC2(C)C(CCNC(=O)Oc2ccc3ccccc3c2)OC(=O)C(C)C(=O)C(C)C1OC1OC(C)CC(N(C)C)C1O (stereo not drawn) [Compound 113] | 1.56 | – | 0.025 | 0.025 | 0.025 | 0.025 | 1.56 | 0.025 | – | – | – | 0.025 | – | 0.025 |
